From patent publication US20090325894A1 (priority 2007, published 2009)
Like-named read-outs stand apart in the source and are kept apart here.

Key:
[1] = test system: LoVo cells; assay: Cell growth inhibition assay (MTS assay), LoVo cells; format: cell-based, Human; conditions: 48 hours, RPMI1640-SIT serum-free medium, read-out: Half maximal inhibitory concentration (IC50) LoVo cells
Experimental: (§1) Cell Growth Inhibition Assay (MTS Assay)
(§2) 1. Cell Strain and Reagents
LoVo: Human colorectal adenocarcinoma cell line (ATCC catalog # CCL-229);
(§3) SIT solution (SIGMA), RPMI 1640 culture solution, Phosphate buffer, Dimethyl sulfoxide (DMSO), MTS solution (Promega), 96-well cell culture plate;
(§4) Anti-tumor compounds: synthesized by Tianjin Hemay Bio-tech Co., Ltd.;
(§5) Positive control drugs: doxorubicin (Zhejiang Hisun Pharmaceutical Co., Ltd).
(§6) The above-mentioned cells were cultured for several days (RPMI 1640, 10% of bovine serum), collected and suspended in RPMI1640-SIT serum-free medium, placed into a 96-well cell culture plate with each well containing about 20,000 cells/100 μL. The cells were cultured overnight at 5% CO2 and 37° C. The next day, representative antitumor compounds (between 3 and 10 mM) were dissolved in dimethyl sulphoxide (DMSO) to obtain a mother solution. Doxorubicin was used as positive control, DMSO was used as negative control.
(§7) The mother solution was diluted and added to the 96 well cell culture plate, culture for 48 hours at 5% CO2 and 37° C. Subsequently, 20 μL of MTS solution was added to each well of the 96 well cell culture plate and cultured for another 2 to 4 hours at 5% CO2 and 37° C. Absorbance was read at 490 nm wavelength, and converted into cell survival rate.
(§8) Calculation of Percent Inhibition:
(§9) %inhibition=100−[reading of absorbance(compound)/reading of absorbance(blank)]×100
(§10) For each concentration, there two measurements were taken and the average value was recorded. The half maximal inhibitory concentration (IC50) of cell growth was calculated by cell growth inhibition curve.

[2] = test system: SW620 cells; assay: Cell growth inhibition assay (MTS assay), SW620 cells; format: cell-based, Human; conditions: RPMI1640-SIT serum-free medium, read-out: Half maximal inhibitory concentration (IC50) SW620 cells
Experimental: as §1, §2
SW620: Human colorectal adenocarcinoma cell line;
as §3, §4, §5, §6, §7, §8, §9, §10

[3] = test system: HeLa cells; assay: Cell growth inhibition assay (MTS assay), HeLa cells; format: cell-based, Human; conditions: 48 hours, RPMI1640-SIT serum-free medium, read-out: Half maximal inhibitory concentration (IC50) HeLa cells
Experimental: as §1, §2
HeLa: Human adenocarcinoma cell line (ATCC catalog # CCL-2);
as §3, §4, §5, §6, §7, §8, §9, §10

[4] = Solubility in water; format: physicochemical

Compound | IC50 [1] | further results
(4-(2-oleoylaminoethylamino)-4-oxo-butanoyl)-L-Alanyl-L-Valyl-Doxorubicin [Example 57] | > 100 µM | 
2-(2-(2-(2-(2-(2-(2-oleoylaminoethoxy)ethoxy)ethoxy)ethoxy)ethoxy)ethoxy)acetyl-L-Alanyl-L-Valyl-Doxorubicin [Example 68] | 30 µM | 
Oleoyl-L-Alanyl-L-Vayl-Doxorubicin maleate [Example 98] | 30 µM | 
COc1cccc2c1C(=O)c1c(O)c3c(c(O)c1C2=O)CC(O)(C(=O)CO)CC3OC1CC(NC(=O)[C@@H](NC(=O)[C@H](C)NC(=O)CCC(=O)NCCNC(=O)CCC(=O)NCCNC(=O)OC(C)(C)C)C(C)C)C(O)C(C)O1 (stereo partly drawn) [Example 58, 4-(2-(4-(2-tert-butoxycarbonyl-aminoethylamino)-4-oxo-butanoylamino)ethylamino)-4-oxo-butanoyl-L-Alanyl-L-Valyl-Doxorubicin] | 75 µM | 
(4-(2-(2-oleoylaminoethoxy)ethoxy)-4-oxo-butanoyl)-L-Alanyl-L-Valyl-Doxorubicin [Example 69] | 25 µM | IC50 ([2]; 48 hours): 12 µM; IC50 [3]: > 100 µM
(4-(2-(2-oleoylaminoethoxy)ethylamino)-4-oxo-butanoyl)-L-Alanyl-L-Valyl-Doxorubicin [Example 54] | 25 µM | 
Bissodium oleoyl-L-Alanyl-L-Valyl-Doxorubicin bis(2-carboxyl-3,4,5,6-tetrafluorobenzoate) [Example 119] |  | solubility in water [4]: more than 1 mg/mL
Oleoyl-L-Alanyl-L-Valyl-Daunorubicin bissuccinate [Example 76] | 10 µM | 
CCCCCCCCC=CCCCCCCCC(=O)NCCNC(=O)CCC(=O)NCCNC(=O)CCC(=O)NC(C)C(=O)NC(C(=O)NC1CC(OC2CC(O)(C(=O)CO)Cc3c(O)c4c(c(O)c32)C(=O)c2c(OC)cccc2C4=O)OC(C)C1O)C(C)C [Example 59, 4-(2-(4-(2-oleoylaminoethylamino)-4-oxo-butanoylamino)ethylamino)-4-oxo-butanoyl-L-Alanyl-L-Valyl-Doxorubicin] | > 100 µM | 
Oleoyl-L-Alanyl-L-Valyl-Doxorubicin bissuccinate [Example 70] | 20 µM | IC50 [3]: > 100 µM
4-(2-oleoylaminoethylamino)-4-oxo-butanoyl-L-Alanyl-L-Valyl-Doxorubicin bissuccinate [Example 79] | 50 µM | 
COc1cccc2c1C(=O)c1c(O)c3c(c(O)c1C2=O)C[C@@](O)(C(=O)CO)C[C@@H]3O[C@H]1C[C@H](N)[C@H](O)[C@H](C)O1 [Doxorubicin, doxorubicin, reference compound] |  | IC50 ([2]; Homo sapiens, SW-620, 48 hours): 0.65 µM; IC50 ([3]; Homo sapiens, HeLa): 0.3 µM; IC50 ([1]; Homo sapiens, LoVo): 2.6 µM
DHA acyl-L-Alanyl-L-Valyl-Doxorubicin bissuccinate [Example 82] | 25 µM | 

More lines, in order of falling IC50 [1], values ahead:

IC50 [1] | Compound | further results
20 µM | Linoleic acyl-L-Alanyl-L-Valyl-Doxorubicin bissuccinate [Example 80] | IC50 [3]: > 100 µM
18 µM | Linolenic acyl-L-Alanyl-L-Valyl-Doxorubicin bissuccinate [Example 81] | 
15 µM | Bissodium linoleic acyl-L-Alanyl-L-Valyl-Doxorubicin bissuccinate [Example 108] | 
12 µM | 4-(2-(2-oleoylaminoethoxy)ethylamino)-4-oxo-butanoyl-L-Alanyl-L-Valyl-Doxorubicin bissuccinate [Example 77] | IC50 [3]: 75 µM
12 µM | Bissodium linolenic acyl-L-Alanyl-L-Valyl-Doxorubicin bissuccinate [Example 109] | 
10 µM | Oleoyl-L-Alanyl-L-Valyl-Doxorubicin bis(2-carboxyl-3,4,5,6-tetrafluorobenzoate) [Example 97] | 
10 µM | Trisodium 4-(2-(2-oleoylaminoethoxy)ethylamino)-4-oxo-butanoyl-L-Alanyl-L-Valyl-Doxorubicin trisuccinate [Example 121] | IC50 [3]: 5 µM
8 µM | Oleoyl-Glycyl-L-Alanyl-L-Valyl-Doxorubicin bissuccinate [Example 74] | 
2.5 µM | CCCCCCCC/C=C\CCCCCCCC(=O)NCCOCCOCCOCCOCCOCCOCC(=O)N[C@@H](C)C(=O)N[C@H](C(=O)NC1CC(OC2CC(O)(C(=O)COC(=O)CCC(=O)O)Cc3c(O)c4c(c(O)c32)C(=O)c2c(OC)cccc2C4=O)OC(C)C1OC(=O)CCC(=O)O)C(C)C (stereo partly drawn) [Example 86, 2-(2-(2-(2-(2-(2-(2-oleoylamino-ethoxy)ethoxy)ethoxy)ethoxy)ethoxy)ethoxy)actyl-L-Alanyl-L-Valyl-Doxorubicin bissuccinate] | 
2 µM | Bissodium 4-(2-(2-oleoylaminoethoxy)ethylamino)-4-oxo-butanoyl-L-Alanyl-L-Valyl-Doxorubicin bissuccinate [Example 112] | IC50 ([2]; 48 hours): 1.5 µM; IC50 [3]: 3 µM
0.8 µM | Oleoyl-L-Alanyl-L-Valyl-Epirubicin bissuccinate [Example 75] | 
